Test results reported in patent publication US20210300912A1 (Ikena Oncology, Inc., priority 2019, published 2021).

Target: T1, AHR (Mus musculus, UniProt P30561)
T1 construct: endogenous in cells; host or cells: Hepa1-6 / Hepa1.6 (murine hepatoma); DRE-luciferase reporter transfected in A3, no transfection in A2
Assay: DRE-Luciferase Reporter Assay, Hepa1.6, agonist
Type: cell-based, murine
Conditions: DRE-Luc Hepa1.6 - Agonist: Average EC50 (μM), Hepa1.6 cells, agonist mode, Table 3
Protocol: (§1) AHR binds to Dioxin Responsive Elements (DRE) upstream of genes that it activates. One measure of AHR activity is activation of a reporter gene, such as luciferase, downstream of one or multiple DRE elements. Luciferase activity will reflect activation and inhibition of AHR in the cells expressing this reporter.
(§2) Murine Hepa1-6 or Hepa-1c1c7 or other murine cell line with a DRE-luciferase reporter either stably or transiently transfected are plated in media in plates (96-well, 384-well or other plates) and incubated overnight at 37 C in a CO2 incubator. Likewise, human HepG2 or other human cell line with a DRE-luciferase reporter either stably or transiently transfected are plated in media in plates (96-well, 384-well or other plates) and incubated overnight at 37 C in a CO2 incubator.
(§3) The next day, an AHR agonist compound is added. Cells are incubated for 6, 16 or 24 hours or another time point and then lysed for determination of luciferase activity as a read-out of the AHR activation. Luciferase can be measured with a commercial kit such as the Promega Luciferase kit or any kit or reagents that provide the luciferin substrate for measuring luciferase activity. The level of luciferase with only activating ligand (e.g. such as TCDD, kynurenine, ITE (2-(1H-indole-3-ylcarbonyl)-4-thiazolecarboxylic methyl ester), VAF347, BNF (beta-naphthoflavone), ICZ (6-formylindolo(3,2-b) carbazole or other AHR ligands) added is the maximum signal while the luciferase with no ligand is the minimum signal. EC50s can be determined as the concentration which activates half of the maximum luciferase activity.

T1 sequence (P30561 10-805 limits assumed): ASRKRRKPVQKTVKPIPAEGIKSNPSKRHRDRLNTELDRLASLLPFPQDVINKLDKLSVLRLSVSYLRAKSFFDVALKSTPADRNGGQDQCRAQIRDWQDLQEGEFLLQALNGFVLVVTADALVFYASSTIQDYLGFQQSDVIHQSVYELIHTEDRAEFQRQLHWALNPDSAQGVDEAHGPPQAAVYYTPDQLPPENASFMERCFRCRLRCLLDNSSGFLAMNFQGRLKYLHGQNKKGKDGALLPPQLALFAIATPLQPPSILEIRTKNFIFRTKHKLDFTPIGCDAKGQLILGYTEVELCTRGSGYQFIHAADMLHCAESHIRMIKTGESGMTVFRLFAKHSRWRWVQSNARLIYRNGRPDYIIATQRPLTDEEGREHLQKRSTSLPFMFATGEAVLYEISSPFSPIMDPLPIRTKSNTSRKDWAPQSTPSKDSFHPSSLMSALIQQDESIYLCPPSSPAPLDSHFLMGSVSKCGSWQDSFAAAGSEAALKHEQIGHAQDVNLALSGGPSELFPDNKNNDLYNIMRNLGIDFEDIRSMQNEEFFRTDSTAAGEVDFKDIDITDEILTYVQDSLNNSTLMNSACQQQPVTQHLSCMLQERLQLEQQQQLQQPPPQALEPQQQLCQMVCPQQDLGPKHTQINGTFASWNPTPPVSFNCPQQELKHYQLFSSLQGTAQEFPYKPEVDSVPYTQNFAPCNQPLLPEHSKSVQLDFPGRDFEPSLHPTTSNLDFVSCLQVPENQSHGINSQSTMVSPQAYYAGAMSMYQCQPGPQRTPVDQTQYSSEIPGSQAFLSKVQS
T1 sequence (P11499 whole entry partner): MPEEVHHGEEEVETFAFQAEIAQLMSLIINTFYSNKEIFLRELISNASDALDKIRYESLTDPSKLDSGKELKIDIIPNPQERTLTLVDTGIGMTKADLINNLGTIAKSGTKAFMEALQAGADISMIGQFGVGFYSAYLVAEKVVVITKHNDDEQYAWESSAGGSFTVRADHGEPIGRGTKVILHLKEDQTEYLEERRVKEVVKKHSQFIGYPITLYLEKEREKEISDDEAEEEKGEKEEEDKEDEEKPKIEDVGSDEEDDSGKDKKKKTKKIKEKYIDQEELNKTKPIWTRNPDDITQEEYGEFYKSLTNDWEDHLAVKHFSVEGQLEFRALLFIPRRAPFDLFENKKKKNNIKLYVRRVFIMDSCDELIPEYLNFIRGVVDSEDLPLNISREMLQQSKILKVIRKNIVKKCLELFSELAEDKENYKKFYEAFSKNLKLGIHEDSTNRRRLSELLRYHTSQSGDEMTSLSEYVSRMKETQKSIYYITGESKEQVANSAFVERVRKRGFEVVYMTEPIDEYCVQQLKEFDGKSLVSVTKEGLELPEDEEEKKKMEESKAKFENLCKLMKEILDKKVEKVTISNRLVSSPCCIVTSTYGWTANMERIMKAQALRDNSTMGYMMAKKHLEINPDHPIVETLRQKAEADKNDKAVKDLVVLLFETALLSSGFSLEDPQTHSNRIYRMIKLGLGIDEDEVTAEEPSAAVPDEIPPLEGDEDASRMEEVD
T1 sequence (O08915 whole entry partner): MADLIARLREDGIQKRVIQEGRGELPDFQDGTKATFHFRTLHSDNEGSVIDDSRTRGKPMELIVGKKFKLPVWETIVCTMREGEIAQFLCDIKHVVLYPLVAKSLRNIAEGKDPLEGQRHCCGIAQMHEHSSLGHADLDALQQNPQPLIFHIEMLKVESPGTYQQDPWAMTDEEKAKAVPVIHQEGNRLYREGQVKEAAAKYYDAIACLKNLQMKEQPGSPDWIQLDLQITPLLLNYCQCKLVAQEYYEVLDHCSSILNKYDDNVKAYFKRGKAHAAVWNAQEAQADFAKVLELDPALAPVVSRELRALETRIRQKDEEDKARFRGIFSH

Row | SMILES | EC50 [µM]
1 | N#Cc1nc(C(=O)c2c[nH]c3ccccc23)sc1N [Compound I-50] | < 0.01
2 | Nc1sc(C(=O)c2c[nH]c3ccccc23)nc1C(F)(F)F [Compound I-51] | < 0.01
3 | COC(=O)c1nc(C(=O)c2c[nH]c3ccccc23)sc1Br [Compound I-53] | 0.01 to 0.1
4 | COC(=O)c1nc(C(=O)c2c[nH]c3ccccc23)sc1Cl [Compound I-55] | 0.01 to 0.1
5 | COC(=O)c1nc(C(=O)c2c[nH]c3ccccc23)sc1N [Compound I-56] | < 0.01
6 | CCc1csc(C(=O)c2c[nH]c3ccccc23)n1 [Compound I-57] | < 0.01
7 | COC(=O)c1ccc2c(C(=O)c3nc(C(C)C)cs3)c[nH]c2c1 [Compound I-58] | 0.01 to 0.1
8 | CC(C)c1csc(C(=O)c2c[nH]c3cc(C(=O)O)ccc23)n1 [Compound I-59] | 0.1 to 1
9 | COc1ccc2c(C(=O)c3nc(C(C)(C)C)cs3)c[nH]c2c1 [Compound I-60] | < 0.01

Same assay, conditions: Hepa1.6 cells, agonist mode, Table 3, read-out: DRE-Luc Hepa1.6 - Agonist: Average EC50

Row | SMILES | EC50 [µM]
10 | O=C(c1nc([C@H]2CC[C@H](O)CC2)cs1)c1c[nH]c2ccccc12 [Compound I-52] | > 1
11 | COC(=O)c1nc(C(=O)c2c[nH]c3ccccc23)sc1C(F)(F)F [Compound I-54] | > 1

Target: T2, AHR (Homo sapiens, UniProt P35869)
T2 construct: endogenous in cells; host or cells: HepG2 (human), DRE-luciferase reporter stably or transiently transfected
T2 sequence (P35869 11-848): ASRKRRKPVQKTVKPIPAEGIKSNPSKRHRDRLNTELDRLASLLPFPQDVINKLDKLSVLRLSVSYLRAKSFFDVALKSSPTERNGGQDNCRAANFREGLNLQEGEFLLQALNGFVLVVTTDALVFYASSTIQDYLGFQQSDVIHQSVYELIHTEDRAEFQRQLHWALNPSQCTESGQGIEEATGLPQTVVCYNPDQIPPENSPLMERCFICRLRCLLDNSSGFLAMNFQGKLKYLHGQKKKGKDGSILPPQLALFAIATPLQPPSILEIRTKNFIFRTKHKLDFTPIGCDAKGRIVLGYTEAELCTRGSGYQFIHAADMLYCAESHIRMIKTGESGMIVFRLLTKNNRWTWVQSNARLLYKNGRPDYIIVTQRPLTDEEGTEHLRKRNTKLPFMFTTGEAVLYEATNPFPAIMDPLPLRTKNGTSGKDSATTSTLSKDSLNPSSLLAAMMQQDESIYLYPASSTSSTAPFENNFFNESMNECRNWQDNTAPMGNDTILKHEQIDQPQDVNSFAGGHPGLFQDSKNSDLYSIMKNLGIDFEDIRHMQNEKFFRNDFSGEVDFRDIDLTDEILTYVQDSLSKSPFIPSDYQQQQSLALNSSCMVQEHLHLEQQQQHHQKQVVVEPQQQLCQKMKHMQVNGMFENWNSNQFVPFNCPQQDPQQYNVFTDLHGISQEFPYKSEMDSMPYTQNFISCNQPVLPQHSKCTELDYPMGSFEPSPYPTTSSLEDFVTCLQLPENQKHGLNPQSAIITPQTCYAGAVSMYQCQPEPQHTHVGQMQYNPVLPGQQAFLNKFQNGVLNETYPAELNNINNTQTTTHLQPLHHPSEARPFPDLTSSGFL
Assay: DRE-Luciferase Reporter Assay, HepG2, agonist
Type: cell-based
Conditions: HepG2 cells, agonist mode, Table 2, read-out: DRE-Luc HepG2 - Agonist: Average EC50
Protocol: as §1, §2, §3

Row | SMILES | EC50 [nM]
12 | Cc1sc(C(=O)c2c[nH]c3ccccc23)nc1C(=O)OCCOCC[N+](C)(C)C [Compound I-1] | < 10
13 | CN(C)C(=O)c1csc(C(=O)c2c[nH]c3ccccc23)n1 [Compound I-3, 2-(1H-Indole-3-carbonyl)-N,N-dimethyl-thiazole-4-carboxamide] | 10 to 100
14 | COC(=O)c1csc(C(=O)c2c[nH]c3cc(OC)ccc23)n1 [Compound I-6] | 100 to 1000
15 | CN(CCOCCO)C(=O)c1csc(C(=O)c2c[nH]c3ccccc23)n1 [Compound I-12] | 100 to 1000
16 | O=C(NCCOCCO)c1csc(C(=O)c2c[nH]c3ccccc23)n1 [Compound I-13] | 100 to 1000
17 | COC(=O)c1nc(C(=O)c2c[nH]c3ccccc23)sc1C [Compound I-14] | 100 to 1000
18 | COC(=O)c1nc(C(=O)c2c[nH]c3cccc(C)c23)sc1C [Compound I-15] | 100 to 1000
19 | Cc1sc(C(=O)c2c[nH]c3ccccc23)nc1C(=O)NCCOCC[N+](C)(C)C [Compound I-16] | 100 to 1000
20 | Cc1sc(C(=O)c2c[nH]c3ccccc23)nc1C(=O)NCCOCCN(C)C [Compound I-17] | 100 to 1000
21 | CN(CCO)CCOC(=O)c1csc(C(=O)c2c[nH]c3ccccc23)n1 [Compound I-21] | > 1000
22 | C[N+](C)(C)CCOCCNC(=O)c1csc(C(=O)c2c[nH]c3ccccc23)n1 [Compound I-22] | > 1000
23 | C[N+](C)(C)CCOCCOC(=O)c1csc(C(=O)c2c[nH]c3ccccc23)n1 [Compound I-24] | > 1000
24 | CN1CCN(C(=O)c2csc(C(=O)c3c[nH]c4ccccc34)n2)CC1 [Compound I-25] | > 1000
25 | O=C(O)CCOCCNC(=O)c1csc(C(=O)c2c[nH]c3ccccc23)n1 [Compound I-26] | > 1000
26 | COC(=O)c1csc(C(=O)n2cnc3ccccc32)n1 [Compound I-27] | > 1000
27 | C[N+]1(C)CCN(C(=O)c2csc(C(=O)c3c[nH]c4ccccc34)n2)CC1 [Compound I-28] | > 1000
28 | Cc1sc(C(=O)c2c[nH]c3ccccc23)nc1C(=O)NCCOCCO [Compound I-29, N-[2-(2-Hydroxyethoxy)ethyl]-2-(1H-indole-3-carbonyl)-5-methyl-thiazole-4-carboxamide] | > 1000
29 | COC(=O)c1cn(C)c(C(=O)c2c[nH]c3ccccc23)n1 [Compound I-30] | > 1000
30 | COC(=O)c1nc(C(=O)c2c[nH]c3ccccc23)sc1C(C)C [Compound I-31] | > 1000
31 | CC(C)c1sc(C(=O)c2c[nH]c3ccccc23)nc1C(=O)O [Compound I-32] | > 1000
32 | COC(=O)c1cnc(C(=O)c2c[nH]c3ccccc23)n1C [Compound I-33] | > 1000
33 | CN(C)CCOCCNC(=O)c1csc(C(=O)c2c[nH]c3ccccc23)n1 [Compound I-34, N-[2-[2-(Dimethylamino)ethoxy]ethyl]-2-(1H-indole-3-carbonyl)thiazole-4-carboxamide] | > 1000
34 | O=C(c1nc(C(=O)N2CCCCC2)cs1)c1c[nH]c2ccccc12 [Compound I-35, 1H-indol-3-yl-[4-(piperidine-1-carbonyl)thiazol-2-yl]methanone] | > 1000
35 | COC(=O)c1c[nH]c(C(=O)c2c[nH]c3ccccc23)n1 [Compound I-36] | > 1000

Row | SMILES | EC50 [nM]
36 | O=C(O)COCCNC(=O)c1csc(C(=O)c2c[nH]c3ccccc23)n1 [Compound I-37] | > 1000
37 | O=C(O)c1coc(C(=O)c2c[nH]c3ccccc23)n1 [Compound I-38] | > 1000
38 | Cn1c(C(=O)O)cnc1C(=O)c1c[nH]c2ccccc12 [Compound I-39] | > 1000
39 | Cc1sc(C(=O)c2c[nH]c3ccccc23)nc1C(=O)O [Compound I-40] | > 1000
40 | CC(C)(C)OC(=O)NCCOCCNC(=O)c1csc(C(=O)c2c[nH]c3ccccc23)n1 [Compound I-41, tert-Butyl N-[2-[2-[[2-(1H-indole-3-carbonyl)thiazole-4-carbonyl]amino]ethoxy]ethyl]carbamate] | > 1000
41 | NCCOCCNC(=O)c1csc(C(=O)c2c[nH]c3ccccc23)n1 [Compound I-42] | > 1000
42 | Cn1cc(C(=O)O)nc1C(=O)c1c[nH]c2ccccc12 [Compound I-43] | > 1000
43 | COC(=O)c1csc(C(=O)c2c[nH]c3ccc(O)cc23)n1 [Compound I-44] | > 1000
44 | COC(=O)c1csc(C(=O)c2c[nH]c3cc(O)ccc23)n1 [Compound I-45] | > 1000
45 | COC(=O)c1nc(C(=O)c2c[nH]c3ccccc23)sc1C [Compound P-1] | < 10
46 | NC(=O)c1csc(C(=O)c2c[nH]c3ccccc23)n1 [Compound P-5] | 10 to 100
47 | O=C(OCCOCCO)c1csc(C(=O)c2c[nH]c3ccccc23)n1 [Compound P-6] | 100 to 1000
48 | COC(=O)c1csc(C(=O)c2c[nH]c3ccc(OC)cc23)n1 [Compound P-7] | 100 to 1000
49 | COC(=O)c1csc(/C(=N/O)c2c[nH]c3ccccc23)n1 [Compound P-8] | 100 to 1000
50 | O=C(OCCO)c1csc(C(=O)c2c[nH]c3ccccc23)n1 [Compound P-9] | 100 to 1000
51 | CO/N=C(\c1nc(C(=O)OC)cs1)c1c[nH]c2ccccc12 [Compound P-10] | 100 to 1000
52 | CO/N=C(/c1nc(C(=O)OC)cs1)c1c[nH]c2ccccc12 [Compound P-11] | > 1000
53 | COC(=O)c1csc(/C(=N\O)c2c[nH]c3ccccc23)n1 [Compound P-13] | > 1000
54 | COC(=O)c1csc([C@H](O)c2c[nH]c3ccccc23)n1 [Compound P-14] | > 1000
55 | COC(=O)c1csc([C@@H](O)c2c[nH]c3ccccc23)n1 [Compound P-15] | > 1000
56 | COC(=O)c1csc(C(=O)c2cn(C)c3ccccc23)n1 [Compound P-16] | > 1000
57 | COC(=O)c1csc(C(=O)c2n[nH]c3ccccc23)n1 [Compound P-17] | > 1000
58 | COC(=O)c1csc(C(=O)c2c[nH]c3cccnc23)n1 [Compound P-18] | > 1000
59 | COC(=O)c1coc(C(=O)c2c[nH]c3ccccc23)n1 [Compound P-19] | > 1000

Same assay, conditions: HepG2 cells, agonist mode, Table 3, read-out: DRE-Luc HepG2 - Agonist: Average EC50

Row | SMILES | EC50 [nM]
60 | N#Cc1nc(C(=O)c2c[nH]c3ccccc23)sc1N [Compound I-50] | < 10
61 | Nc1sc(C(=O)c2c[nH]c3ccccc23)nc1C(F)(F)F [Compound I-51] | < 10
62 | O=C(c1nc([C@H]2CC[C@H](O)CC2)cs1)c1c[nH]c2ccccc12 [Compound I-52] | 10 to 100
63 | COC(=O)c1nc(C(=O)c2c[nH]c3ccccc23)sc1Br [Compound I-53] | < 10
64 | COC(=O)c1nc(C(=O)c2c[nH]c3ccccc23)sc1C(F)(F)F [Compound I-54] | < 10
65 | COC(=O)c1nc(C(=O)c2c[nH]c3ccccc23)sc1Cl [Compound I-55] | < 10
66 | COC(=O)c1nc(C(=O)c2c[nH]c3ccccc23)sc1N [Compound I-56] | < 10
67 | CCc1csc(C(=O)c2c[nH]c3ccccc23)n1 [Compound I-57] | < 10
68 | COC(=O)c1ccc2c(C(=O)c3nc(C(C)C)cs3)c[nH]c2c1 [Compound I-58] | 10 to 100
69 | CC(C)c1csc(C(=O)c2c[nH]c3cc(C(=O)O)ccc23)n1 [Compound I-59] | 100 to 1000
70 | COc1ccc2c(C(=O)c3nc(C(C)(C)C)cs3)c[nH]c2c1 [Compound I-60] | < 10
